The test system of one experiment is L-selectin. Put plainly: Inhibition of L-selectin IgG chimera binding to sLex on microtiter wells. As to conditions: FIG. 7; L-selectin 35 ng/ml; sennoside B from 2 mM, serial 1/2 dilutions; sLex 25 pm/well. As for the experimental part:
(§1) The capacity of the multivalent anthraquinone derivative, Sennoside B, to inhibit selectin binding to sLex was tested essentially as described by Foxall, C., et al J. Cell Biol., vol. 117, pages 895-902 (1992) using selectin IgG chimeras.
(§2) The following assay procedure was used. sLex at 25 pm/well was evaporated onto microtiter wells in MeOH and H2 O overnight. The plates were washed with H2 O and blocked with 5% BSA in PBS with 1 mM Ca for 1 hour. L-selectin was diluted to 35 ng/ml in 1% BSA PBS with 1 mM Ca and 1:1500 biotinylated goat F(ab') anti-human IgG Fc (CalTag, corp.) and streptavidin-alkaline phosphatase. E-selectin at 50 ng/ml and P-selectin at 750 ng/ml were similarly diluted with 1:1000 dilutions of biotinylated goat F(ab') anti-human IgG Fc and streptavidin-alkaline phosphatase. These were allowed to complex for 15 minutes at 37° C.
(§3) Part of each selectin solution was made 2 mM with sennoside B (obtained from Pfaltz and Bauer, Inc., Waterbury, Conn.) The most concentrated solutions were diluted with the selectin solution to yield 3 solutions each 1/2 as concentrated as the previous. The solutions with selectin and inhibitor were incubated for 45 minutes at 37° C. […]
(§4) Binding is expressed as "% of No Addition Control." That is, in some wells, no inhibitor was present, and the binding in these wells represents the maximum (100%) binding.

A further experiment deals with E-selectin. Description: Inhibition of E-selectin IgG chimera binding to sLex on microtiter wells. The settings on record: FIG. 6; E-selectin 50 ng/ml; sennoside B from 2 mM, serial 1/2 dilutions; sLex 25 pm/well. On the procedure:
as §1, §2, §3, §4

The next experiment relates to P-selectin. Description: Inhibition of P-selectin IgG chimera binding to sLex on microtiter wells. The settings on record: FIG. 8; P-selectin 750 ng/ml; sennoside B from 2 mM, serial 1/2 dilutions; sLex 25 pm/well. On the procedure:
as §1, §2, §3, §4

As to `O=C(O)c1cc(O)c2c(c1)[C@@H]([C@H]1c3cc(C(=O)O)cc(O)c3C(=O)c3c(O[C@@H]4O[C@H](CO)[C@@H](O)[C@H](O)[C@H]4O)cccc31)c1cccc(O[C@@H]3O[C@H](CO)[C@@H](O)[C@H](O)[C@H]3O)c1C2=O` [Sennoside B], in the experiment on L-selectin, the “L-selectin binding to sLex (expressed as % of No Addition Control)” value is recorded as “inhibited”. The “E-selectin binding to sLex (expressed as % of No Addition Control)” value in the experiment with E-selectin is reported as “inhibited”. In addition, the “P-selectin binding to sLex (expressed as % of No Addition Control)” value with P-selectin is “most inhibited”.

These data come from patent US5412123A, “Anthraquinone and anthracene derivatives as inhibitors of the cell-adhesion molecules of the immune system” (Glycomed Incorporated, priority 1993, dated 1995).
